Data as given in US20100331312A1, “MODULATORS OF THE HISTAMINE H3 RECEPTOR USEFUL FOR THE TREATMENT OF DISORDERS RELATED THERETO” (ARENA PHARMACEUTICALS, INC., priority 2008, published 2010).
pKi: −log10 of the molar value. Structures can show the parent of a compound that is named as a salt.

What was measured:
Histamine H3 Receptor [1] = target: T1, Histamine H3 Receptor (Rattus norvegicus, UniProt Q9QYN8); experiment: [3H] N-alpha-methyl-histamine competitive histamine H3 receptor binding assay; parameters: A crude membrane fraction was prepared from whole rat brain cortex; from tissue; host or cells: whole rat brain cortex, crude membrane fraction; settings: whole rat brain cortex membranes, [3H]-N-α-methylhistamine 1 nM
T1 sequence (Q9QYN8 whole entry): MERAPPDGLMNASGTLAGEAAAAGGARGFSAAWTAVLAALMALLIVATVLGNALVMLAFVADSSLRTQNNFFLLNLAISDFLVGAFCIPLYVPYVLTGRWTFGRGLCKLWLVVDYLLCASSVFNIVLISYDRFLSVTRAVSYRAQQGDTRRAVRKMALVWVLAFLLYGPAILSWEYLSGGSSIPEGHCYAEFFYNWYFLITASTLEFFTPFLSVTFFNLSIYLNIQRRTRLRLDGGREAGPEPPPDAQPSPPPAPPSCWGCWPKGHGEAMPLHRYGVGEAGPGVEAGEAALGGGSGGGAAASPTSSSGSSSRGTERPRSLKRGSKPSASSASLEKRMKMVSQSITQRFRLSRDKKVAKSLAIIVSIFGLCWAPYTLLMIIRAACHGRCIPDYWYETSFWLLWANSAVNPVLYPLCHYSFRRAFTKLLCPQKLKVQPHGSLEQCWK
Procedure: [^3H] N-Alpha-Methyl-Histamine Competitive Histamine H3 Receptor Binding Assay
The histamine receptor binding assay was conducted using standard laboratory procedures as described below. A crude membrane fraction was prepared from whole rat brain cortex using a polytron to homogenize the tissue followed by differential centrifugation in a HEPES-based buffer containing protease inhibitors. Membranes where frozen at −80° C. until needed. Frozen membranes were thawed and resuspended in ice-cold assay buffer consisting of 50 mM TRIS containing 5 mM EDTA (pH=7.4). 50 micrograms (μg) of membrane protein was added to each well of a 96-well assay plate along with test compound and [^3H]-N-α-methylhistamine (1 nanomolar (nM) final assay concentration). Imetit was used as an assay positive control at varying concentrations. The plate was incubated for 30 min at room temperature. The assay was terminated by rapid filtration through a 96-well glass fiber filtration plate (GF/C) using a cell harvester (Perkin-Elmer). Captured membranes were washed three times with cold assay buffer and plates were dried at 50° C. 35 microliters (μL) of scintillation cocktail was added to each well and membrane-bound radioactivity was recorded using a TopCount 96-well plate scintillation counter (Perkin-Elmer).

Histamine H3 Receptor [2] = target: T1, Histamine H3 Receptor; experiment: Blockade of RAMH-induced drinking assay; assay type: in vivo; settings: male Sprague Dawley rats, 0.3 mg/kg PO, RAMH 3 mg/kg SC, reduction in water intake
Procedure: Blockade of RAMH-Induced Drinking Assay
When administered to rodents, histamine H3 receptor agonists such as (R)-α-methylhistamine (RAMH) induce a drinking response that is sensitive to reversal with a histamine H3 receptor antagonist. Blockade of RAMH-induced drinking can therefore be utilized as an in vivo assay for functional histamine H3 receptor antagonist activity. In this assay, male Sprague Dawley rats (250-350 g) were housed three per cage and maintained under a reverse 12 h light cycle (lights off at 1130 h). At 1030 h on the day of test, rats were individually housed in new cages and food was removed. 120 min later, rats were administered test article (vehicle or histamine H3 receptor antagonist, 0.3 mg/kg PO). 30 min later, water was removed, and RAMH (vehicle or RAMH 3 mg/kg salt SC) was administered. 10 min after administration of RAMH, weighed water bottles were placed in the cages, and drinking was allowed for 20 min. Water consumption was determined for each animal by weighing each bottle to the nearest 0.1 g. Data is expressed as percentage reduction in water intake according to the following formula:
[((VEH/RAMH)−(ANTAGONIST/RAMH))/((VEH/RAMH)−(VEH/VEH))]*100

[3] = target: T2, human histamine H3 receptor (Homo sapiens, UniProt Q9Y5N1); experiment: Human histamine H3 receptor binding assay, MDS Pharma Services (Taiwan), Catalogue No. 239810
T2 construct: purchased MDS Pharma Services (Taiwan) 239810
T2 sequence (Q9Y5N1 whole entry): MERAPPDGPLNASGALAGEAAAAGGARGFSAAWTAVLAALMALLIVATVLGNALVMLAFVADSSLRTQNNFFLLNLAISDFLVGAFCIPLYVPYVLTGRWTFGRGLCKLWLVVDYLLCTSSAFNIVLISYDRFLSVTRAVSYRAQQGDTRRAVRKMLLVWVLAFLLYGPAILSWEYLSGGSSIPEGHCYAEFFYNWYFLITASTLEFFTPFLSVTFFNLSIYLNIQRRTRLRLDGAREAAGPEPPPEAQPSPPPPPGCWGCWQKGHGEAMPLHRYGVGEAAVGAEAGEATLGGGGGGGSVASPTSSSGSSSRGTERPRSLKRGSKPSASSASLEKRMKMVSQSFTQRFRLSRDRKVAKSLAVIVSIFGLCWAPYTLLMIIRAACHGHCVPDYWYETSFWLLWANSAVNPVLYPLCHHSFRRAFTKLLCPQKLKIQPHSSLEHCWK
Procedure: Human Histamine H3 Receptor Binding Assay—MDS Pharma Services (Taiwan)
Compounds of the invention were tested for their ability to bind to the human histamine H3 receptor using the MDS Pharma Services (Taiwan) assay, Catalogue No. 239810.

[4] = Dynamic vapor sorption (DVS) hygroscopicity; assay type: physicochemical; settings: 25° C.
Procedure: Dynamic Vapor Sorption (DVS)
Hygroscopicity was measured using a dynamic moisture-sorption analyzer, VTI Corporation, SGA-100. The sample was placed as-is in a tared sample holder on the VTI balance. A drying step was run at 40° C. and ˜1% RH for 120 minutes. The isotherm conditions are 25° C. with steps of 20% RH from 10% RH up to 90% RH and back to 10% RH. Weight is checked every 2 minutes. Percent weight change of <0.01% in 20 minutes or 2 hours, whichever occurs first, is required before continuing to the next step. The DVS profile for the crystalline form (Form 1) of (R)-2-hydroxy-1-(6-(4-(2-(2-methylpyrrolidin-1-yl)ethyl)phenyl)-3,4-dihydroisoquinolin-2(1H)-yl)ethanone hydrochloride is shown in FIG. 16.

Structure (SMILES)	pKi (Histamine H3 Receptor [1])	% inhibition of RAMH-induced drinking (Histamine H3 Receptor [2]) [%]	further results
COc1ccc(C(=O)N2CCc3cc(-c4ccc(CCN5CCC[C@H]5C)cc4)ccc3C2)cc1 [Compound 9, (R)-(4-methoxyphenyl)(6-(4-(2-(2-methylpyrrolidin-1-yl)ethyl)phenyl)-3,4-dihydroisoquinolin-2(1H)-yl)methanone]	8.96		
C[C@@H]1CCCN1CCc1ccc(-c2ccc3c(c2)CCN(C(=O)c2ccncc2)C3)cc1 [Compound 14, (R)-(6-(4-(2-(2-methylpyrrolidin-1-yl)ethyl)phenyl)-3,4-dihydroisoquinolin-2(1H)-yl)(pyridin-4-yl)methanone]		40.7	
C[C@@H]1CCCN1CCc1ccc(-c2ccc3c(c2)CN(C(=O)C2CC2)C3)cc1 [Compound 5, (R)-cyclopropyl(5-(4-(2-(2-methylpyrrolidin-1-yl)ethyl)phenyl)isoindolin-2-yl)methanone]	9.96		pKi [3]: 9.24
COCCC(=O)N1CCc2ccc(-c3ccc(CCN4CCC[C@H]4C)cc3)cc2C1 [Compound 1, (R)-3-methoxy-1-(7-(4-(2-(2-methylpyrrolidin-1-yl)ethyl)phenyl)-3,4-dihydroisoquinolin-2(1H)-yl)propan-1-one]		81.6	
C[C@@H]1CCCN1CCc1ccc(-c2ccc3c(c2)CCN(C(=O)CO)C3)cc1 [Compound 10 HCl Salt (Form 1), (R)-2-hydroxy-1-(6-(4-(2-(2-methylpyrrolidin-1-yl)ethyl)phenyl)-3,4-dihydroisoquinolin-2(1H)-yl)ethanone hydrochloride]			DVS absorption at 90% relative humidity ([4]; crystalline Form 1, hydrochloride): FIG. 16: absorption of less than 0.25%; DVS absorption at 90% relative humidity ([4]; crystalline Form 1, listed as Form 1 of the HCl salt of Compound 10, hydrochloride): about 0.25%
C[C@@H]1CCCN1CCc1ccc(-c2ccc3c(c2)CCN(C(=O)C2CC2)C3)cc1 [Compound 3, (R)-cyclopropyl(6-(4-(2-(2-methylpyrrolidin-1-yl)ethyl)phenyl)-3,4-dihydroisoquinolin-2(1H)-yl)methanone]	9.35		
C[C@@H]1CCCN1CCc1ccc(-c2ccc3c(c2)CCN(C(=O)CCO)C3)cc1 [Compound 16, (R)-3-hydroxy-1-(6-(4-(2-(2-methylpyrrolidin-1-yl)ethyl)phenyl)-3,4-dihydroisoquinolin-2(1H)-yl)propan-1-one]	8.82		
C[C@@H]1CCCN1CCc1ccc(-c2ccc3c(c2)CN(C(=O)C2CCOCC2)C3)cc1 [Compound 12, (R)-(5-(4-(2-(2-methylpyrrolidin-1-yl)ethyl)phenyl)isoindolin-2-yl)(tetrahydro-2H-pyran-4-yl)methanone]	10.05		
C[C@@H]1CCCN1CCc1ccc(-c2ccc3c(c2)CCN(C(=O)c2ccccn2)C3)cc1 [Compound 18, (R)-(6-(4-(2-(2-methylpyrrolidin-1-yl)ethyl)phenyl)-3,4-dihydroisoquinolin-2(1H)-yl)(pyridin-2-yl)methanone]		66.1	pKi [3]: 8.67
